# “Also recorded” adds a separate entry of the source.
# How the values were obtained:
# Assay type in all cases: in vivo
# CGRP receptor [1] = molecular target: T1, CGRP receptor (Mus musculus, UniProt Q9R1W5+Q9WTJ5); assay: Body size / weight gain after intranasal BIBN-4096 in NEHI mouse model; settings: analyzed at P22
# T1 construct: from tissue; host or cells: Live mouse pups on a B6 background (Nkx2-1 R191L NEHI model and control genotypes); lung, intranasal dosing
# Experimental: (§1) BIBN-4096 (Fisher Scientific #45-611-0) was dissolved in 100% DMSO (Sigma-Aldrich D2650) and further diluted to working solution with saline before use. 10 ul of 0.3 mg/ml BIBN-4096 was intranasally administrated to pups at P10, P12, P14, P16 and P18.
# CGRP receptor [2] = molecular target: T1, CGRP receptor; assay: Lung wet-to-dry ratio (pulmonary edema) after intranasal BIBN-4096 in NEHI mouse model; settings: Nkx2-1^L/L mutants; intranasal 10 ul of 0.3 mg/ml at P10, P12, P14, P16, P18; analyzed at P22; vs vehicle DMSO
# Experimental: Each lung was removed from sacrificed mouse right after euthanasia. Excessive blood was removed by kimwipe and wet weight mw was measured right after dissection. The lung was then placed on the foil at 70° C. for 24 hours. Dry weight […] was then measured by reweighing the dried lung. Wet-to-dry ratio was calculated as: W/D ratio=mw/md.
# as §1
# CGRP receptor [3] = molecular target: T1, CGRP receptor; assay: Oxygen saturation (SpO2) by pulse-ox after intranasal BIBN-4096 in NEHI mouse model; settings: Nkx2-1^L/L mutants; intranasal 10 ul of 0.3 mg/ml at P10-P18; analyzed at P22; vs vehicle DMSO
# Experimental: Pups were shaved and […] by isoflurane while pulse-ox (MouseOxPlus, Starr Life Sciences) was performing. The SpO2 reads were recorded after 5 minutes of stable measurement.
# as §1
# T1 sequence (Q9R1W5 23-463): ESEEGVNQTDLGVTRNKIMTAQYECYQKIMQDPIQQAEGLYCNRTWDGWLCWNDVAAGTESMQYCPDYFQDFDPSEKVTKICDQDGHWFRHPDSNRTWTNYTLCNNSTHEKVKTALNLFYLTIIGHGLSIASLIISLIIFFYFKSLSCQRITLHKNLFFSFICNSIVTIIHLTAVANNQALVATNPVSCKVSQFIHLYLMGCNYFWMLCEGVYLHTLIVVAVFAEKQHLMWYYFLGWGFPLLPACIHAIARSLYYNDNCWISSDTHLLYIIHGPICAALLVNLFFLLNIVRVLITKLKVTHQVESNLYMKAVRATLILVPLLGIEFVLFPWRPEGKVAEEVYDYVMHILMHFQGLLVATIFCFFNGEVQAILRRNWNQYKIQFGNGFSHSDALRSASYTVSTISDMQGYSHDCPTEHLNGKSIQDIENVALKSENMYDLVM
# T1 sequence (Q9WTJ5 27-148): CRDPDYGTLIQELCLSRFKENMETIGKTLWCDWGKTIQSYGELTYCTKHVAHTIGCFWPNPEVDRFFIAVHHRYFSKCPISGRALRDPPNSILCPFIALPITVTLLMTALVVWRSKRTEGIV
compound,measurement,setting,value
"NCCCC[C@H](NC(=O)[C@@H](Cc1cc(Br)c(O)c(Br)c1)NC(=O)N1CCC(N2Cc3ccccc3NC2=O)CC1)C(=O)N1CCN(c2ccncc2)CC1 [BIBN-4096, N-((1R)-2-(((1S)-5-amino-1-((4-(pyridin-4-yl)piperazin-1-yl)carbonyl)pentyl)amino)-1-(3,5-dibromo-4-hydroxybenzyl)-2-oxoethyl)-4-(2-oxo-1,4-dihydroquinazolin-3 (2H)-yl) piperidine-1-carboxamide]",Body size / weight gain,"CGRP receptor [1]; Nkx2-1^L/L mutants, intranasal 10 ul of 0.3 mg/ml at P10-P18, vs vehicle DMSO",clear reversal; also recorded: improved size
same,Effects of treatment in control genotype groups,"CGRP receptor [1]; control genotype groups, intranasal P10-P18, vs vehicle DMSO (FIG. 9B)",did not lead to detectable effects
same,Lung wet-to-dry ratio (pulmonary edema),CGRP receptor [2],clear reversal; also recorded: attenuation of fluid in lung
same,Oxygen saturation measured by pulse-ox (gas-exchange),CGRP receptor [3],clear reversal; also recorded: improved gas-exchange efficiency

# From US12521389B2, “Therapeutic approach to lung disease” (The Regents of the University of California, priority 2019, dated 2026)
